According to US11253526B2, “Nanostructured formulations for the delivery of silibinin and other active ingredients for treating ocular diseases” (DISTRETTO TECNOLOGICO SICILIA MICRO E NANO SISTEMI …, priority 2014, dated 2022):
Where “and” joins values, the source holds several entries; their conditions need not be identical. Identical values can stand only once.

Experiments:
[1] = Degradation of curcumin in PBS and serum-free medium; format: physicochemical
[2] = tested on: inducible nitric oxide synthase (iNOS); experiment: Western blot, iNOS level in LPS-stimulated J774 cells; format: cell-based; conditions: LPS 10 μg/mL for 24 hours, pre-treatment
Experimental: (§1) In particular, J774 cells were stimulated with lipopolysaccharide (LPS) at a concentration of 10 μg/mL for 24 hours, stimulation with LPS induces the activation of inflammatory processes such as NFκB nuclear translocation and cytokine production, if not also release of nitrites and nitrosative stress. The cell viability was then evaluated following stimulation with LPS (10 μg/mL for 24 hours) and 2-hour pretreatment of the delivery systems being studied at the different concentrations. […] The anti-inflammatory activity of the delivery systems was then evaluated through the Western Blot analysis. […] The NFκB activation involves the production of proteins and inflammatory mediators such as cyclooxygenase 2 (COX-2) and inducible nitric oxide synthase (iNOS) and consequent increase in the production of nitrites.

cyclooxygenase 2 (COX-2) = experiment: Western blot, COX-2 level in LPS-stimulated J774 cells; format: cell-based; conditions: LPS 10 μg/mL for 24 hours, pre-treatment
Experimental: as §1

[3] = tested on: Uveitis induced in Lewis rats; experiment: Uveitis model induced by LPS endotoxin, topical administration; format: in vivo; conditions: 16 and 72 hours after LPS injection
Experimental: With the aim of verifying the effectiveness of the calixarene system loaded with the active ingredient to the eye site of interest, an experiment was conducted in vivo with an Uveitis model. Uveitis was induced in 160-180 g Lewis rats by single subcutaneous injection in the hind paw of 200 ìg of the LPS endotoxin from Salmonella Minnesota diluted in 0.2 mL PBS, pH 7.4. The control group received only 0.2 mL of PBS in the hind paw. […] The eyes were enucleated for histological and immunohistochemical analysis. The aqueous humor was also taken for protein dosing.

ARPE-19 cells [4] = experiment: LDH release, 20 h pretreatment then 50 μM FeSO4 insult; format: cell-based
Experimental: (§2) Then, the effects of the conjugated and empty system were tested using the compound FeSO4 as oxidative insult, with changes in the cellular redox status. Over 24 hours of incubation, the cells are pre-treated for 20 h and then exposed to insult with 50 μM FeSO4 for three hours [“Pretreatment” 20 h drug+3 h insult]. The viability test conducted to evaluate the toxicity and the ability of protection from damage of the carrier in question is to assess the release of LDH in the culture medium. […] In subsequent experiments, the effects of post-treatment with calixarene based compounds were tested. Therefore, cells were treated with 50 μM FeSO4 for 5 hours and incubated for 20 hours with the various compounds.

ARPE-19 cells [5] = experiment: LDH release, 50 μM FeSO4 for 5 hours then 20 h post-treatment; format: cell-based; conditions: then 20 hours with compound
Experimental: as §2

PARP-1 protein = experiment: Western blotting of PARP-1 after H2O2 and post-treatment; format: cell-based; conditions: samples treated with H2O2, post-treatment
Experimental: Lysates of retinal cells exposed to post-treatment with the INUC8PEG system, empty or conjugated with silibinin, were analyzed by western blotting for the expression of the PARP-1 protein, a poly (ADP-ribose) polymerase of 116 kDa involved in DNA repair in response to environmental stress (Calcium Overload Is A Critical Step In Programmed Necrosis Of Arpe-19 Cells Induced By High-Concentration H2O2 Guang-Yu Li et al., (2010) Biomedical And Environmental Sciences). In vivo and in vitro, PARP-1 is processed by Caspase 3 and Caspase 7 with the formation of a 24 kDa DNA-binding domain and an 89 kDa catalytic domain that participates in the apoptosis (Importance of Poly (ADP-ribose) Polymerase and Its Cleavage in Apoptosis F. J Oliver et al., (1998) J. Biol. Chem.).

[6] = cited from earlier work
cathepsin D = experiment: Western blot of cathepsin D after FeSO4 insult and post-treatment; format: cell-based
Source text: Cathepsin D is an intracellular aspartyl protease, synthesized in the endoplasmic reticulum as pre-pro-enzyme that is processed up to generate active fragments. According to the cellular environment in which it resides, it can induce or inhibit apoptosis through different mechanisms. The 48 kDa fragment is an active intermediate form from which two additional active fragments are generated; therefore, its reduction is associated with the activation of the proteolytic process, vice versa its increase is indicative of an inhibition of apoptosis. In the presence of oxidative stress, the activation of cathepsin D may activate caspase 8 which in turn activates caspase 3, leading to cell death (Regulatory role of cathepsin D in apoptosis, A. Minarowska et al., (2007) Folia Histochemica et Cytobiologica) (Caspase-8-mediated apoptosis induced by oxidative stress is independent of the intrinsic pathway and dependent on cathepsins H. K. Baumgartner et al., (2007) Am J Physiol Gastrointest Liver Physiol.).

SIRC corneal cells = experiment: Cytotoxicity on SIRC corneal cells; format: cell-based; conditions: SIRC corneal (epithelial) cells
Experimental: (§3) The colloidal solutions of calixarene 1, calixarene loaded with active ingredient and active ingredient alone were tested for cytotoxicity: SIRC corneal cells (FIG. 11), J774 macrophages (FIG. 12) and ARPE retinal cells.

[7] = Average hydrodynamic diameter and polydispersity index by DLS / photo-correlation spectroscopy; format: physicochemical; conditions: DLS in PBS, pH 7.4; calixarene nanoaggregates
Experimental: The average diameter and the polydispersity index (PDI) of the SLN-A systems prepared were determined by photo-correlation spectroscopy (PCS) using a Zetasizer Nano ZSP (Malvern Instrument).
The average diameter and the polydispersity index (PDI) of the NLC-B systems coated with INU-EDA and chitosan prepared were determined by photo-correlation spectroscopy (PCS) using a Zetasizer Nano ZSP (Malvern Instrument).
(§4) The size distribution of micelles was determined through dynamic light scattering measurements using the Malvern Zetasizer Nano ZS. […] The aqueous solutions of micelles (2 mg/mL) were analyzed after filtration through cellulose membrane filters with 5 μm cut off. The average hydrodynamic diameter and the polydispersity index (PDI) were obtained using cumulative analyses of the correlation function. The zeta potential (mV) was calculated by the electrophoretic mobility and using the Smoluchowsky relation, assuming that K·a>>1 (where K and a are the Debye-Hückel parameter and the particle radius, respectively).
(§5) The average diameter, polydispersity index (PDI) and zeta potential of calixarene nanoparticles loaded and not with silibinin were measured using a Zetasizer Nano ZS-90 (Malvern Instrument), the reading was made at an angle of 90° with respect to the incident ray and analyzed in triplicate.

ARPE-19 retinal cells = experiment: Biocompatibility / toxicity on ARPE-19 retinal cells; format: cell-based
Experimental: as §2, §3

J774 cells = experiment: Viability / anti-inflammatory activity in J774 cells stimulated with LPS; format: cell-based
Experimental: as §1

J774 macrophages = experiment: Cytotoxicity on J774 macrophages; format: cell-based
Experimental: as §3

[8] = Zeta potential measurement; format: physicochemical; conditions: in PBS, pH 7.4; calixarene nanoaggregates
Experimental: The zeta potential was measured according to the principles of the laser doppler velocimetry and of the light scattering analysis (M3-PALS technique) using a Zetasizer Nano ZSP (Malvern) with a He—Ne laser, power=4.0 mW, wavelength=633 nm.
as §4, §5

[9] = 20 h incubation, cells not exposed to FeSO4
[10] = pre-treated 20 h, then FeSO4 (50 μM)

COc1cc(/C=C/C(=O)CC(=O)/C=C/c2ccc(O)c(OC)c2)ccc1O [curcumin, diferuloylmethane]
degradation ([1]; in 30 min, 0.1 M PBS and serum-free medium): 80-90% and 90% | levels of iNOS [2]: reduces significantly and in a dose-dependent manner | levels of COX-2 (cyclooxygenase 2 (COX-2)): reduces significantly and in a dose-dependent manner | ocular inflammation / histologic damage [3]: significantly decreased the histologic damage | protein levels in the aqueous humor [3]: most effectively determined the reduction of proteins

Silibinin [reference compound]
release of LDH (ARPE-19 cells [4]; [9]): reduces the release of LDH | release of LDH (ARPE-19 cells [4]; [10]): an effect not observed | protection against insult (LDH release) (ARPE-19 cells [5]): individually able to protect from the redox status alteration | inhibition of apoptosis induced by oxidative damage (PARP-1 protein): reduces the apoptotic process, however with less efficiency than the conjugated carrier | solubility in water [6]: 430 µg/mL | expression levels of cathepsin D (48 kDa band) (cathepsin D): increases the expression levels of cathepsin D | ocular inflammation / histologic damage [3]: decreased but not significant ocular inflammation | protein levels in the aqueous humor [3]: a trend but not significant

CCCCCCCCCCCCOc1c2cc(C[N+](C)(C)CCO)cc1Cc1cc(C[N+](C)(C)CCO)cc(c1OCCCCCCCCCCCC)Cc1cc(C[N+](C)(C)CCO)cc(c1OCCCCCCCCCCCC)Cc1cc(C[N+](C)(C)CCO)cc(c1OCCCCCCCCCCCC)C2 [compound 1]
release of LDH (ARPE-19 cells [4]; [9]): do not significantly change the release of LDH | release of LDH (ARPE-19 cells [4]; [10]): an effect not observed | protective effect towards curcumin ([1]; PBS as a solvent): protects curcumin | biocompatibility (SIRC corneal cells): good biocompatibility | protection against insult (LDH release) (ARPE-19 cells [5]): individually able to protect from the redox status alteration | PDI [7]: 0.29 | Z-average [7]: 44.3 nm | levels of iNOS [2]: reduces significantly and in a dose-dependent manner | levels of COX-2 (cyclooxygenase 2 (COX-2)): reduces significantly and in a dose-dependent manner | biocompatibility (ARPE-19 retinal cells; ARPE-19 / ARPE retinal cells): good biocompatibility | toxicity (ARPE-19 retinal cells; concentrations 0.01-1 μM, incubated for 20 hours): caused no toxicity | cell viability following stimulation with LPS (J774 cells; LPS 10 μg/mL for 24 hours, 2-hour pretreatment): able to restore the cell viability | anti-inflammatory activity, rank order (J774 cells; macrophages subjected to inflammatory stress with LPS): calixarene loaded with curcumin>>calixarene>>curcumin alone | biocompatibility (J774 macrophages): good biocompatibility | expression levels of cathepsin D (48 kDa band) (cathepsin D): increases the expression levels of cathepsin D | Potential ζ [8]: 24 mV | ocular inflammation / histologic damage [3]: the degree of inflammation was not reduced | protein levels in the aqueous humor [3]: did not result in a reduction in the protein levels
